From publication PMC6204753, “Non-native autoinducer analogs capable of modulating the SdiA quorum sensing receptor in Salmonella enterica serovar Typhimurium” (Beilstein Journal of Organic Chemistry, 2018)
“And” between values parts separate entries of the source, which are not always exact repeats. Equal values may be shown once. “Also recorded” adds a separate entry of the source. Marks after values point to notes of the source that are not given here.

Tests used:
Type in all cases: cell-based
SdiA [1] = molecular target: T1, SdiA (Salmonella enterica subsp. enterica serovar Typhimurium, UniProt O66040); experiment: S. Typhimurium-pJNS25 SdiA reporter, agonism (luminescence); settings: for EC50: agonism dose–response, read-out: EC50; for Emax: read-out: activation (%); for fold increase: potency of thiolactone over corresponding lactone (EC50 ratio)
Excerpt: Biological assays for SdiA activity. Cell-based reporter strains that rely on detecting the transcriptional activity of LuxR-type receptors are commonly used to assess the activity of exogenous ligands. We used the S. Typhimurium-pJNS25 reporter strain constructed by Smith and Ahmer and also used by Janssens et al. to examine SdiA activity. This strain naturally produces SdiA and contains a reporter plasmid with the promoter region for srgE fused to the luxABCDE operon of V. fischeri (see Experimental section for details of all strains and plasmids). SdiA activity is thus reported by the production of luciferase and resulting bioluminescence. We also prepared an SdiA reporter in E. coli (JLD271-pJN105SE-pSC11SE) to examine S. Typhimurium SdiA activity in an alternate background and with a different reporter gene output. […] This reporter construct uses an arabinose inducible promoter to produce S. Typhimurium SdiA and the promoter region for srgE fused to lacZ to report SdiA activity. SdiA activity is then measured using standard β-galactosidase assays. In both reporter strains, signal was normalized to the difference between the positive control (10 μM OOHL) and the negative control (1% DMSO; no compound).
Salmonella SdiA reporter assay. S. Typhimurium-pJNS25 was grown 16–18 h overnight in LB, diluted 1:100 in fresh LB medium, and then incubated for 6 h at 37 °C with shaking at 200 rpm in the presence of compounds (1% DMSO). […] All compounds were screened at 100 μM and 1 μM in triplicate in agonism and antagonism assays. […] Dose–response analyses were performed by preparing dilutions of compounds in DMSO and testing each concentration in the agonism or antagonism assays. Competition dose–response assays (data in Figure 5) were performed in the same manner as the antagonism assays, except instead of OOHL being added to the subculture, the antagonist being tested was added. Non-linear regression curve fits were generated using GraphPad Prism software (version 6) using variable slope (four parameter) dose–response analysis.

SdiA [2] = molecular target: T1, SdiA; experiment: S. Typhimurium-pJNS25 SdiA reporter, competitive antagonism against 10 nM L-OOHL; settings: for inhibition at 1 µM: 1 μM compound, read-out: Antagonism 1 μM Inhibition (%); for inhibition at 1 µM / inhibition at 100 µM: average ± STD, change in activity from 10 nM 2 (OOHL); for inhibition at 100 µM: 100 μM compound, read-out: Antagonism 100 μM Inhibition (%); for IC50: against 10 nM L-OOHL (EC90); for Emax: 100% minus lowest % activity in presence of 10 nM L-OOHL (2)
How it was run: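 S. Typhimurium-pJNS25 (native SdiA, srgE promoter–luxCDABE) subcultured 1:100 in LB and incubated 6 h at 37 °C, 200 rpm, with compound (1% DMSO); antagonism run against 10 nM L-OOHL. Luminescence normalised between 10 μM OOHL and 1% DMSO controls; triplicates; four-parameter dose–response fits.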

S. Typhimurium SdiA = S. Typhimurium SdiA (Salmonella enterica subsp. enterica serovar Typhimurium, UniProt O66040); experiment: E. coli JLD271-pJN105SE-pSC11SE SdiA reporter, antagonism (β-galactosidase); settings: for inhibition (%): E. coli reporter, against OOHL at its EC50 (1.5 nM), NA = not active
Excerpt: Biological assays for SdiA activity. Cell-based reporter strains that rely on detecting the transcriptional activity of LuxR-type receptors are commonly used to assess the activity of exogenous ligands. We used the S. Typhimurium-pJNS25 reporter strain constructed by Smith and Ahmer and also used by Janssens et al. to examine SdiA activity. This strain naturally produces SdiA and contains a reporter plasmid with the promoter region for srgE fused to the luxABCDE operon of V. fischeri (see Experimental section for details of all strains and plasmids). SdiA activity is thus reported by the production of luciferase and resulting bioluminescence. We also prepared an SdiA reporter in E. coli (JLD271-pJN105SE-pSC11SE) to examine S. Typhimurium SdiA activity in an alternate background and with a different reporter gene output. E. coli JLD271 is the sdiA mutant of K-12 E. coli. This reporter construct uses an arabinose inducible promoter to produce S. Typhimurium SdiA and the promoter region for srgE fused to lacZ to report SdiA activity. SdiA activity is then measured using standard β-galactosidase assays. In both reporter strains, signal was normalized to the difference between the positive control (10 μM OOHL) and the negative control (1% DMSO; no compound).
E. coli SdiA reporter assay. The β-galactosidase assay using the E. coli SdiA reporter was performed as reported previously, with minor modifications. The reporter strain was grown 16–18 h overnight in LB, diluted 1:10 in fresh LB medium, and incubated at 37 °C with shaking at 200 rpm until it reached an OD600 of 0.25. Expression of SdiA was induced by the addition of 4 mg/mL arabinose, and the culture was incubated in the presence of compounds (1% DMSO) for 4 h at 37 °C with shaking at 200 rpm. […] A 50 μL aliquot of culture from each well was lysed in 200 μL of Z-buffer and 8 μL of chloroform, and a 100 μL aliquot of this lysate was incubated with 25 μL of 4 mg/mL ONPG for 20 min at 30 °C before reading absorption at 420 nm and 550 nm using a Biotek Synergy 2 plate reader. Non-linear regression curve fits were generated using GraphPad Prism software (version 6) using variable slope (four parameter) dose–response analysis.

SdiA [3] = molecular target: T1, SdiA; experiment: Competition dose–response of OOHL (2) against antagonists in the S. Typhimurium SdiA reporter; settings: for inhibition profile in competition assay (in words): against OOHL (2)
Procedure: We also submitted compounds 11, R8, and F45 to competition-type assays in the S. Typhimurium SdiA reporter to further characterize their activity profiles. […] The results are shown in Figure 5 (EC50 and maximal activity values listed in Supporting Information File 3).
Salmonella SdiA reporter assay. S. Typhimurium-pJNS25 was grown 16–18 h overnight in LB, diluted 1:100 in fresh LB medium, and then incubated for 6 h at 37 °C with shaking at 200 rpm in the presence of compounds (1% DMSO). For antagonism assays, OOHL (2) at its EC90 (10 nM, 0.1% DMSO) was added to the subculture immediately prior to adding the compound for testing. All compounds were screened at 100 μM and 1 μM in triplicate in agonism and antagonism assays. Raw luminescence values were divided by the OD600 and then normalized to the controls; negative (DMSO) and positive (10 μM OOHL) control samples were included in every assay plate and used to normalize assay results, setting the positive control to 100% and the negative control to 0%. Luminescence was measured using a Biotek Synergy 2 plate reader and Gen 5 software (version 1.05). Dose–response analyses were performed by preparing dilutions of compounds in DMSO and testing each concentration in the agonism or antagonism assays. Competition dose–response assays (data in Figure 5) were performed in the same manner as the antagonism assays, except instead of OOHL being added to the subculture, the antagonist being tested was added. Non-linear regression curve fits were generated using GraphPad Prism software (version 6) using variable slope (four parameter) dose–response analysis.

[4] = maximal activity (efficacy) from agonism dose–response, 10 μM OOHL = 100%, DMSO = 0%
[5] = maximal activation of the antagonists (partial agonism), Table 3
[6] = maximal inhibition, read-out: inhibition (%)

Chain of S. Typhimurium SdiA (O66040 entry or part of it): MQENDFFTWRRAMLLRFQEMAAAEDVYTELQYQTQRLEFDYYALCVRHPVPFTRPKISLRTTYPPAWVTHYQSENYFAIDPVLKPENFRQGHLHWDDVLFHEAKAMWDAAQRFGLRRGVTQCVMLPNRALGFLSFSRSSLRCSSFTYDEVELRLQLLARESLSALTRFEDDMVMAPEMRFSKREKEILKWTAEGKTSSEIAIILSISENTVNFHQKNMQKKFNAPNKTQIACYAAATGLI
T1 sequence (O66040 entry or part of it): as above

Structure (SMILES) | EC50 (SdiA [1]) | Emax (SdiA [1]; [4]) | inhibition at 1 µM (SdiA [2]) | inhibition at 100 µM (SdiA [2]) | Emax (SdiA [1]; [5]) | IC50 (SdiA [2]) | Emax (SdiA [2]; [6]) | other results
CCCC(=O)N[C@H]1CCSC1=O [F8] | 0.0628 µM | 91% | -5 ± 10% | -23 ± 11% | – | – | – | fold increase (SdiA [1]): 9.20
O=C(Cc1cccc([N+](=O)[O-])c1)N[C@H]1CCSC1=O [F11] | 0.00247 µM | 97% | -11 ± 7% | -16 ± 13% | – | – | – | fold increase (SdiA [1]): 11.5
COc1ccc(CC(=O)N[C@H]2CCSC2=O)cc1 [F12] | 0.0388 µM | 84% | -13 ± 10% | -21 ± 8% | – | – | – | fold increase (SdiA [1]): 6.49
O=C(Cc1ccc(-c2ccccc2)cc1)N[C@H]1CCSC1=O [F13] | – | – | 23 ± 4% | 46 ± 15% | 59% | 2.35 µM | 51% | –
CCOC(=O)CNC(=O)Cc1ccc(Br)cc1 [F39] | – | – | 27 ± 9% | 53 ± 11% | 50% | – | 55% | –
CCOC(=O)CNC(=O)Cc1cccc([N+](=O)[O-])c1 [F40] | – | – | 21 ± 8% | 43 ± 4% | 56% | 27.8 µM | 33% | –
CCOC(=O)CNC(=O)Cc1cccc(I)c1 [F45] | – | – | 8 ± 10% | 92 ± 2% | 26% | 28.5 µM | 87% | inhibition (%) (S. Typhimurium SdiA): failed to display antagonistic activity; inhibition profile in competition assay (in words) (SdiA [3]): non-competitive inhibition profile; EC50 (SdiA [3]; antagonist at 0.1 μM): 1.77 nM; EC50 (SdiA [3]; antagonist at 1 μM): 1.33 nM; EC50 (SdiA [3]; antagonist at 10 μM): 4.11 nM
CCOC(=O)CNC(=O)Cc1ccc(OC)cc1 [F47] | – | – | 3 ± 14% | 36 ± 10% | 61% | – | 42% | –
CCCCCCCCCCOc1ccc(C(=O)N[C@H]2CCOC2=O)cc1 [R7] | – | – | 8 ± 6% | 43 ± 15% | 6% | 3.1 µM | 51% | –
CCCCCCCCCCCOc1ccc(C(=O)N[C@H]2CCOC2=O)cc1 [R8] | – | – | 18 ± 5% | 67 ± 5% | 24% | 44 µM and 44.2 µM | > 100% | inhibition at 0.0015 µM (S. Typhimurium SdiA): 106%; inhibition (%) (S. Typhimurium SdiA): fully inhibit SdiA activity; inhibition profile in competition assay (in words) (SdiA [3]): competitive SdiA inhibition; EC50 (SdiA [3]; antagonist at 0.1 μM): 1.57 nM; EC50 (SdiA [3]; antagonist at 1 μM): 1.51 nM; EC50 (SdiA [3]; antagonist at 10 μM): 2.52 nM; EC50 (SdiA [3]; antagonist at 100 μM): 10.6 nM
CCCCCCCCCCCCOc1ccc(C(=O)N[C@H]2CCOC2=O)cc1 [R9] | – | – | 22 ± 10% | 42 ± 13% | 6% | – | 63% | –
O=C(COc1ccc(I)cc1)N[C@H]1CCSC1=O [RN22] | 0.00608 µM | 93% | -4 ± 9% | 3 ± 9% | – | – | – | fold increase (SdiA [1]): 1.71^c
CCCCCCC(CCCC)C(=O)N[C@H]1CCOC1=O (stereo partly shown) [S2] | – | – | 48 ± 3% | 2 ± 11% | 63% | – | 32% | –
O=C(CC1CCCCC1)N[C@H]1CCOC1=O [S7] | 0.106 µM | 89% | 7 ± 14% | 1 ± 7% | – | – | – | –
O=C(CCCOc1cccc(Br)c1)N[C@H]1CCSC1=O [compound 16, reference compound] | – | – | 8 ± 14% | 84 ± 6% | – | 45 µM | – | activity in the SdiA reporter assay (in words) (SdiA [1]; S. Typhimurium reporter): multimodal, or non-monotonic; Emax (SdiA [1]): 48%; inhibition (%) (S. Typhimurium SdiA; 0.0015 µM): failed to display antagonistic activity; also recorded: did not display any activity; Emax (SdiA [2]; read-out: inhibition (%), maximal inhibition): 89%
O=C(Nc1ccccc1NC(=O)c1cccc(Cl)c1)c1cccc(Cl)c1 [compound 20, reference compound] | – | – | 35 ± 18% | 39 ± 17% | 47% | – | 53% | –
